Where two headings read alike, the source gives them in different places.
What was measured:
recombinant EhPanK = test: Regulation of EhPanK by CoA, acetyl CoA and malonyl CoA (double-reciprocal plots); format: biochemical, Entamoeba histolytica; settings: inhibitor 0, 0.5, 2 mM; for Mechanism of inhibition with respect to ATP: various ATP, 0.2 mM pantothenate; for Mechanism of inhibition with respect to pantothenate: various pantothenate, 100 μM ATP
From the text: PanK from other organisms was reported to be negatively regulated by allosteric inhibition with CoA, acetyl CoA, and malonyl CoA ([Calder et al., 1999]; [Takagi et al., 2010]; [Vallari et al., 1987]). […] The mechanisms of inhibition by acetyl CoA were not clear but seemed to be the mixed type with respect to ATP and pantothenate (Fig. 3).
Fig. 2 Effect of CoA, acetyl CoA, and malonyl CoA on the pantothenate kinase activities. Relative activities of EhPanK in the presence of various concentrations of inhibitors to those without inhibitors are shown. […] The assays were carried out three times independently, and the results are shown as means ± SEM of triplicates.
Fig. 3 Double-reciprocal plots of the recombinant EhPanK in the presence of CoA (A and B), malonyl CoA (C and D), or acetyl CoA (E and F). The enzymatic activities were determined with various concentrations of ATP and 0.2 mM pantothenate (A, C, and E) or various concentrations of pantothenate and 100 μM ATP (B, D, and F), in the presence of three concentrations of inhibitors (0, 0.5, and 2 mM). Data are shown in means ± SEM of triplicate analyses.

[1] = target: T1, E. histolytica pantothenate kinase (Entamoeba histolytica, UniProt B1N2P3); test: Phosphoryl donor specificity of EhPanK; format: biochemical; settings: donor 100 μM, 0.2 mM pantothenate, 10 mM MgCl2, 37 °C, pH 6; relative to ATP; ND = not detected
From the text: EhPanK utilized various nucleoside triphosphates, ATP, CTP, GTP, UTP, dATP, and polyphosphates, as well as deoxynucleotides as phosphoryl donors, with ATP being the best phosphate donor (Table 2).

[2] = target: E. histolytica PanK (EhPanK) recombinant enzyme (Entamoeba histolytica, UniProt B1N2P3); test: biochemical
Method: We screened 244 compounds from the Kitasato Natural Products Library for inhibition of EhPanK activity. Initially, each compound was dissolved in 50% DMSO and water at a final concentration of 1 mg/mL. Enzymatic reactions were carried out on a black 384-well microtiter plate with a 20 μL reaction mixture composed of 19 μl enzyme mix (100 μM pantothenate, 100 μM ATP, 50 ng of EhPanK recombinant enzyme in kinase buffer (see above) and 1 μl of the individual compounds (final concentration 50 μg/mL or 25–200 μM) at 37 °C for 2 h. After the kinase reaction, ADP was measured using ADP Hunter™ Plus kinase assay kit as described previously. Inhibition values were measured in triplicate.
Fig. S8. Dose-response data of inhibitors against EhPanK inhibitors. IC50 values were determined by dose-response-inhibition using GraphPad Prism (GraphPad Software Inc., San Diego, USA). Data are shown in mean of three replicates.

[3] = test system: E. histolytica trophozoite (HM-1:IMSS cl6); test: Anti-amebic activity, trophozoite viability (WST-1, 48 h); format: cell-based, Entamoeba histolytica; settings: HM-1:IMSS cl6 trophozoites, anaerobic, 35.5 °C, mean ± SEM
Method: Approximately 1 × 10^4 trophozoites of E. histolytica clonal strain HM-1:IMSS cl6 in 200 μl of BI-S-33 medium were dispensed into each well of a 96-well plate and incubated at 35.5 °C for 2 h. Medium was then removed and replaced with 200 μl of BI-S-33 medium that contained various concentrations of each compound. […] The plate was incubated under anaerobic conditions at 35.5 °C for 48 h. After the medium was removed, 100 μl of pre-warmed Opti-MEM I (Life Technologies, Grand Islands, NY, USA) containing one-tenth volume of WST-1 (Roche, Mannheim, Germany) was added. The viability of trophozoites was estimated by measuring absorbance at 450 nm by SpectraMax® Paradigm® (Molecular Devices, CA, USA). Metronidazole was used as positive control at final concentrations of 0.1–10 μM and 0.5% DMSO as negative control. Each assay was performed in triplicate. IC50 values were calculated by least squares curve fitting of the dose inhibition curves using GraphPad Prism (GraphPad Software Inc., San Diego, USA).

[4] = test system: MRC-5 cells (human fibroblast); test: Cytotoxicity against MRC-5 cells (WST-8, 48 h); format: cell-based; settings: MRC5, MRC-5, 48 h, mean ± SEM, read-out: IC50 Normal human cell (MRC-5)
Method: Human fibroblast cells, MRC-5, were cultured on 96-well flat bottom plates at a density of 1.5 × 10^4 cells/well with 100 μl of MEM medium (Life Technologie) containing 10% fetal bovine serum (Hana-nesco Bio, Tokyo, Japan) and 1% penicillin-streptomycin (Life Technologies). Cells were incubated at 37 °C with 5% CO2 for 48 h. Approximately 100 μl of MEM medium containing 5 μl of each compound dissolved in 50% DMSO in water were added to each well. After the plates were incubated for 48 h, approximately 10 μl of WST-8 (Dojindo, Kumamoto, Japan) was added to each well and the plate was incubated at 37 °C with 5% CO2 for 2 h. The absorbance was measured at 450 nm by spectrophotometer (SH-9000Lab, Corona Electric, Ibaraki, Japan). Growth of MRC-5 cells was measured in duplicate. Staurosporine (Kitasato Natural Products Library) was used as a positive (cytotoxic) control in a concentration range of 0.5 pM to 0.1 nM IC50 values were calculated as described previously.

[5] = target: T1, E. histolytica pantothenate kinase; format: biochemical
[6] = recombinant EhPanK, 100 μM pantothenate, 100 μM ATP, 37 °C, 2 h, mean ± SEM of three replicates, read-out: IC50 against EhPanK activity
[7] = cation 5 mM, 0.2 mM pantothenate, 37 °C, pH 6.0, relative to MgCl2, ND = not detected

T1 sequence (B1N2P3 entry or part of it): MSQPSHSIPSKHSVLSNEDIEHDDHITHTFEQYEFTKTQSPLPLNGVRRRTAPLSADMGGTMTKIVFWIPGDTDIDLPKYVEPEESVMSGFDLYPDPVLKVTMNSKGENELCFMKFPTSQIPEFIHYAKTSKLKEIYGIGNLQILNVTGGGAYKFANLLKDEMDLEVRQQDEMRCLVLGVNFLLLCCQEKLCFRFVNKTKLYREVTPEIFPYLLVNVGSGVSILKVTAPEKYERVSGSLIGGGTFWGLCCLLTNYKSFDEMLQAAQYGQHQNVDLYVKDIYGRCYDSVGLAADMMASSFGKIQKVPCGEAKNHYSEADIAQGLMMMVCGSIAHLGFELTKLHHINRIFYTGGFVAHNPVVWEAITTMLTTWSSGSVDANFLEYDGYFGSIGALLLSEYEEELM
Sequence of E. histolytica PanK (EhPanK) recombinant enzyme (B1N2P3 entry or part of it): as above

| Molecule | IC50 [2, 6] [µM] | IC50 ([3]; Entamoeba histolytica) [µM] | IC50 [4] [µM] | further results |
| --- | --- | --- | --- | --- |
| CC(C)(COP(=O)(O)OP(=O)(O)OC[C@H]1O[C@@H](n2cnc3c(N)ncnc32)[C@H](O)[C@@H]1OP(=O)(O)O)[C@@H](O)C(=O)NCCC(=O)NCCS [CoA, Coenzyme A] |  |  |  | Mechanism of inhibition with respect to ATP (recombinant EhPanK): competitive; Mechanism of inhibition with respect to pantothenate (recombinant EhPanK): uncompetitive |
| Nc1ncnc2c1ncn2[C@@H]1O[C@H](COP(=O)(O)OP(=O)(O)OP(=O)(O)O)[C@@H](O)[C@H]1O [ATP] |  |  |  | Relative activity (phosphoryl donor) [1]: 100.0 ± 4.1% |
| O=C(Cc1cccs1)N[C@@H]1C(=O)N2C(C(=O)[O-])=C(C[n+]3ccccc3)CS[C@H]12 [Cephaloridine] | 230 ± 10.1 | 246 ± 34.9 | 48.2 ± 3.61 |  |
| CC(C)(COP(=O)(O)OP(=O)(O)OC[C@H]1O[C@@H](n2cnc3c(N)ncnc32)[C@H](O)[C@@H]1OP(=O)(O)O)[C@@H](O)C(=O)NCCC(=O)NCCSC(=O)CC(=O)O [malonyl CoA] |  |  |  | Mechanism of inhibition with respect to ATP (recombinant EhPanK): competitive; Mechanism of inhibition with respect to pantothenate (recombinant EhPanK): non-competitive |
| CS[C@H]1SC[C@H]2C(=O)N(C)[C@@H](C(C)C)C(=O)OC[C@@H](NC(=O)c3cnc4ccccc4n3)C(=O)N[C@@H](C)C(=O)N(C)[C@@H]1C(=O)N(C)[C@@H](C(C)C)C(=O)OC[C@@H](NC(=O)c1cnc3ccccc3n1)C(=O)N[C@@H](C)C(=O)N2C [Echinomycin] | 77.8 ± 4.4 |  | < 0.38 |  |
| NC[C@@H]1O[C@H](O[C@H]2[C@@H](O)[C@H](O[C@@H]3[C@@H](O)[C@H](N)C[C@H](N)[C@H]3O[C@H]3O[C@H](CN)[C@@H](O)[C@H](O)[C@H]3N)O[C@@H]2CO)[C@H](N)[C@@H](O)[C@@H]1O [Neomycin] | 147 ± 6.8 | < 20 | > 163 | IC50 [3]: 10.6 ± 1.12 µM |
| O=c1ccn([C@@H]2O[C@H](COP(=O)(O)OP(=O)(O)OP(=O)(O)O)[C@@H](O)[C@H]2O)c(=O)[nH]1 [UTP] |  |  |  | Relative activity (phosphoryl donor) [1]: 16.6 ± 1.2% |
| Cc1cn([C@H]2C[C@H](O)[C@@H](COP(=O)(O)OP(=O)(O)OP(=O)(O)O)O2)c(=O)[nH]c1=O [TTP] |  |  |  | Relative activity (phosphoryl donor) [1]: 5.4 ± 1.9% |
| LiCl2 |  |  |  | Relative activity (metal) [5, 7]: 34.5 ± 1.8% |
| [Cl][Mn][Cl] [MnCl2] |  |  |  | Relative activity (metal) [5, 7]: 83.2 ± 2.0% |
| Cc1ncc([N+](=O)[O-])n1CCO [Metronidazole] |  | 0.66 ± 0.05 | > 100 |  |
| Nc1nc2c(ncn2[C@@H]2O[C@H](COP(=O)(O)OP(=O)(O)OP(=O)(O)O)[C@@H](O)[C@H]2O)c(=O)[nH]1 [GTP] |  |  |  | Relative activity (phosphoryl donor) [1]: 78.8 ± 4.9% |
| Nc1ccn([C@@H]2O[C@H](COP(=O)(O)OP(=O)(O)OP(=O)(O)O)[C@@H](O)[C@H]2O)c(=O)n1 [CTP] |  |  |  | Relative activity (phosphoryl donor) [1]: 1.4 ± 0.2% |
| CC(=O)[C@H]1O[C@@H](Oc2ccc(/C=C(\C)C(=O)N[C@@H]3[C@H](O)[C@@H](O)[C@H]4OCO[C@H]4[C@@H]3O)cc2O)[C@@H](O)[C@@H]1O [Hygromycin A] | 194 ± 17.8 | 142 ± 16.3 | > 196 |  |
| CCCCC/C=C\CCC(=O)N[C@H]1[C@H](Oc2c3cc4cc2Oc2ccc(cc2Cl)[C@@H](O[C@@H]2O[C@H](CO)[C@@H](O)[C@H](O)[C@H]2NC(C)=O)[C@@H]2NC(=O)[C@H](NC(=O)[C@@H]4NC(=O)[C@H]4NC(=O)[C@@H](Cc5ccc(c(Cl)c5)O3)NC(=O)[C@H](N)c3ccc(O)c(c3)Oc3cc(O)cc4c3)c3ccc(O)c(c3)-c3c(O[C@H]4O[C@H](CO)[C@@H](O)[C@H](O)[C@@H]4O)cc(O)cc3[C@@H](C(=O)O)NC2=O)O[C@H](CO)[C@@H](O)[C@@H]1O [Teicoplanin] |  |  |  | IC50 ([2]; read-out: IC50 against EhPanK activity, recombinant EhPanK, 100 μM pantothenate, 100 μM ATP, 37 °C, 2 h, mean ± SEM of three replicates): 26.3 ± 2.6 µM |
| [Cl][Cu][Cl] [CuCl2] |  |  |  | Relative activity (metal) [5, 7]: 84.3 ± 4.7% |

| Molecule | IC50 [2, 6] [µM] | IC50 ([3]; Entamoeba histolytica) [µM] | IC50 [4] [µM] | further results |
| --- | --- | --- | --- | --- |
| O=P(O)(O)OP(=O)(O)OP(=O)(O)O [Tripolyphosphate] |  |  |  | Relative activity (phosphoryl donor) [1]: 16.9 ± 0.8% |
| CC(/C=C/C(O)=C1/C(=O)CNC1=O)=C\C(C)C1OC2(C)OC(C(=O)C3OC32C)C1C (stereo not shown) [Tirandamycin A] | 229 ± 3.4 | < 20 | 144 ± 3.8 | IC50 [3]: 13.7 ± 4.85 µM |
| COc1cccc2c1C(=O)C1=C(C[C@@H](CC(=O)O)O[C@@H]1C)C2=O [O-methylnanaomycin A] | 284 ± 28.7 |  | 19 ± 0.49 |  |
| [Cl][Fe][Cl] [FeCl2] |  |  |  | Relative activity (metal) [5, 7]: 72.8 ± 1.7% |
| [Cl-].[Cl-].[Co+2] [CoCl2] |  |  |  | Relative activity (metal) ([5]; pH 6): 74.2 ± 6.1% |
| C[C@H]1O[C@H](O[C@H]2[C@H](O)[C@@H](O)[C@@H](O)[C@H](O)[C@@H]2O)[C@@H](N)C[C@@H]1NC(=N)C(=O)O [Kasugamycin] |  | 66.2 ± 13.7 | 87.1 ± 7.22 | IC50 [2]: 254 ± 4.7 µM |
| Polyphosphate |  |  |  | Relative activity (phosphoryl donor) [1]: 16.2 ± 2.5% |
| CC(/C=C/C(=O)NO)=C\[C@@H](C)C(=O)c1ccc(N(C)C)cc1 [Trichostatin] | 310 ± 14.9 |  | 2.62 ± 0.49 |  |
| [H]/N=C(/N)N[C@H]1[C@H](O)[C@@H](O)[C@H](O[C@@H]2O[C@@H](C)[C@](O)(C=O)[C@H]2O[C@@H]2O[C@@H](CO)[C@H](O)[C@@H](O)[C@@H]2NC)[C@@H](N/C(N)=N\[H])[C@@H]1O [Streptomycin] | 155 ± 10.1 | 77.5 ± 1.52 | > 172 |  |
| [Cl-].[Cl-].[Zn+2] [ZnCl2] |  |  |  | Relative activity (metal) [5, 7]: 3.9 ± 0.7% |
| O=C1OC2(OC=C(c3ccccc3)C2=O)c2ccccc21 (stereo not shown) [Fluorescamine] |  | 168 ± 20.1 | 288 ± 17.8 | IC50 ([2]; read-out: IC50 against EhPanK activity): 346 ± 14.7 µM |
| CCC1OC(=O)CC(O)C(C)C(O[C@@H]2O[C@H](C)C[C@H](N(C)C)[C@H]2O)C(CC=O)CC(C)C(=O)/C=C/C2(C)OC2C1C (stereo partly shown) [Rosamycin] | 166 ± 2 | 56.3 ± 11.7 | 34.4 ± 2.71 |  |
| [Ca+2].[Cl-].[Cl-] [CaCl2] |  |  |  | Relative activity (metal) [5, 7]: 17.0 ± 3.0% |
| Nc1ncnc2c1ncn2[C@H]1C[C@H](O)[C@@H](COP(=O)(O)OP(=O)(O)OP(=O)(O)O)O1 [dATP] |  |  |  | Relative activity (phosphoryl donor) [1]: 19.3 ± 4.3% |
| CC[C@H]1OC(=O)[C@H](C)[C@@H](O[C@H]2C[C@@](C)(OC)[C@@H](O)[C@H](C)O2)[C@H](C)[C@@H](O[C@@H]2O[C@H](C)C[C@H](N(C)C)[C@H]2O)[C@](C)(O)C[C@@H](C)C(=O)[C@H](C)[C@@H](O)[C@]1(C)O [Erythromycin A] | 131 ± 6 | 156 ± 20.6 | > 136 |  |
| [Cl-].[Cl-].[Mg+2] [MgCl2] |  |  |  | Relative activity (metal) [5, 7]: 100.0 ± 0.0% |
